Molecular target: T1, streptavidin (Streptomyces avidinii, UniProt P22629)
T1 construct: purchased Dynal
Experiment: FITC-biotin binding to a single streptavidin-coated bead in a scanned droplet
Conditions: 5 μl of 48 nM FITC-biotin plus 5 μl buffer with a single 2.8 μm streptavidin bead; equilibrium after 30 minutes
Experimental: A 5 μl sample of a solution of 48 nM fluorescein isothiocyanate-labelled biotin (FITC-biotin) is added to 5 μl of a solution of buffer containing a single 2.8 μm diameter bead coated with streptavidin (obtained from Dynal). The sample was presented to the instrument for scanning as a 10 μl droplet on the surface of a glass microscope slide. Illumination and light collection was arranged from above the sample. The instrument was set to take fluorescent intensity measurements at 1 μm intervals across the sample in the x-direction with a line-to-line step of 2.2 μm in the y-direction. As the laser spot size was 6 μmm, this allowed for overlap between each scan line. The graphs plot the relative intensity (analogue-to-digital converter or ADC counts) against position (sample number) for several adjacent scan lines. Initially, the FITC-biotin has had insufficient time to diffuse to the streptavidin sites concentrated on the bead. The sample was scanned at intervals over the period of the experiment. It can be readily appreciated that the signal obtained from the illumination will be proportional to the number of molecules of label (FITC-biotin) in the path of the laser at each point. If, as in this case, the label is homogenous throughout the droplet then the signal at each point is proportional to the path length of the laser through the sample. […]

T1 sequence (P22629 25-183): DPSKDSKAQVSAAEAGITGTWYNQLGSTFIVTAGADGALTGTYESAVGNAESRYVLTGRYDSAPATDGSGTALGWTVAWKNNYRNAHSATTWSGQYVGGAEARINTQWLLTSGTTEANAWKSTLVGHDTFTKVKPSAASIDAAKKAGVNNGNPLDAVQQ

With “fluorescein isothiocyanate-labelled biotin [FITC-biotin]” the “PVS/UVS signal ratio at equilibrium” value was “approx. 6.1”.

From patent US6730521B1, “Chemical and biochemical assay method and apparatus” (The Technology Partnership PLC, priority 1999, dated 2004)
